Results on 31 molecules are retold here after US20250319046A1, “PHENYLALANINE-BASED LAT1 INHIBITORS AND USES THEREOF” (MAXYMUNE THERAPEUTICS, INC., priority 2024, published 2025).

A value given as a limit tells only on which side of the number the result lay.

LAT1, sequence (Q01650 whole entry): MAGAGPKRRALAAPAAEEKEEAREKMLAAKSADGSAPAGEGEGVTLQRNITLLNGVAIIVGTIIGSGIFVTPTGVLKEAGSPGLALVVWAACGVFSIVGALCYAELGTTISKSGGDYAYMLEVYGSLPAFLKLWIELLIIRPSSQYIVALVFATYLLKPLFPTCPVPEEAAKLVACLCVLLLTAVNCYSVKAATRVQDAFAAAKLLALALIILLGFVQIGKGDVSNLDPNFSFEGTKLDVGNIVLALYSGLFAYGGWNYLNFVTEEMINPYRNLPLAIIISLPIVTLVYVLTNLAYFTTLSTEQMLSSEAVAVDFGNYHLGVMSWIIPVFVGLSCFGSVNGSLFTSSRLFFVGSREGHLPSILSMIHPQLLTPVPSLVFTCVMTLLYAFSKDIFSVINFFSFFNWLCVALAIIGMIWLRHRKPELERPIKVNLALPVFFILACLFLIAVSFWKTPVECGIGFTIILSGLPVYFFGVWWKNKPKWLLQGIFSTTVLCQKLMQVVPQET
LAT1, sequence (P08195 whole entry partner): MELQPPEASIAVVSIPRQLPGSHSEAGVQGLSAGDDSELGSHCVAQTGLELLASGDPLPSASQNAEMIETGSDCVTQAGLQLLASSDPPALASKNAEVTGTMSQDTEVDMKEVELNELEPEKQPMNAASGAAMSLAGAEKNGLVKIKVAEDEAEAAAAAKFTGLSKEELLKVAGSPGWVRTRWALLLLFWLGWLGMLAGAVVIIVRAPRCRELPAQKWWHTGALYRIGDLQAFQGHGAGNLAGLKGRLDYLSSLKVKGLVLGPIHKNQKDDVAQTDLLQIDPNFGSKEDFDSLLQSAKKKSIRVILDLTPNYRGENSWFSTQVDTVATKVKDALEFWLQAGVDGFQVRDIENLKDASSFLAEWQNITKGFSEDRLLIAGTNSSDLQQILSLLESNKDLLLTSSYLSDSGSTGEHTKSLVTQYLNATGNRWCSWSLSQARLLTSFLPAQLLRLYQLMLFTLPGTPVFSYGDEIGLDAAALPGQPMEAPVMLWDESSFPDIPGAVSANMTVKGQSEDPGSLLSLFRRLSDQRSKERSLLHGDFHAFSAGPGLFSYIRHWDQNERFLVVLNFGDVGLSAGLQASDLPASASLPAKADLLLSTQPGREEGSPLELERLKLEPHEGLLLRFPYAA

This test deals with LAT1 (Homo sapiens (Human), UniProt Q01650). The experiment in a line: LAT1 uptake inhibition assay: [3H]-gabapentin competition uptake in LN229 cells. Format: cell-based. The note with it: [3H]-gabapentin uptake, 15 min incubation in PBS, read-out: IC50, the concentration of test compound at which the [3H]-GP uptake was inhibited by 50%. As to the method:
LAT1 Uptake Inhibition Assay
The ability of compounds to interact with LAT1 was measured using a radiolabeled competition uptake assay with [^3H]-Gabapentin ([^3H]-GP) (Perkin Elmer) in 96-well plates with LN229 cells (ATCC®). Ten (10)×10^3 (10,000) cells/well were plated in white, clear bottom plates and were allowed to grow for three (3) days. On the fourth day, the cells were washed and then incubated with 50,000 counts per minute (cpm) of [^3H]-GP in phosphate buffered saline (PBS) (VWR International) with increasing concentrations of test compounds in at least triplicate for 15 min. At end of the assay time, the incubation solution was removed, and plates were washed three times (3×) with 100 μL of ice-cold PBS buffer. One-hundred fifty (150) […] of scintillation fluid (VWR International) was added to each well, and the radioactivity retained within the cells was measured on a 96-well scintillation counter. Background uptake ([^3H]-GP uptake in the presence of 10 mM non-radiolabeled gabapentin (GP)) (MedKoo) was subtracted and data were normalized to the DMSO control ([^3H]-GP uptake in the absence of any competitor). Data were fitted to the Michaelis-Menten equation using GraphPad Prism (Version 8.2.0).
As for `Cc1ccc(S(=O)(=O)NCC(C)C)cc1C[C@H](N)C(=O)O` [Compound 46, (S)-2-Amino-3-(5-(N-isobutylsulfamoyl)-2-methylphenyl)propanoic Acid], the IC50 lay in the range of 100 to 1000 nM. For the molecule `N[C@@H](Cc1cc(Cl)c(NS(=O)(=O)c2ccccc2)c(Cl)c1)C(=O)O` [Compound 47, (S)-2-Amino-3-(3,5-dichloro-4-(phenylsulfonamido)phenyl)propanoic Acid], the IC50 was no less than 10000 nM. Under `Cc1ccc(S(=O)(=O)N(c2ccc(C)c(C[C@H](N)C(=O)O)c2)S(=O)(=O)c2ccc(C)cc2)cc1` [Compound 48, (S)-2-Amino-3-(2-methyl-5-((4-methyl-N-tosylphenyl)sulfonamido)phenyl)propanoic Acid] stands 100 to 1000 nM; under `Cc1ccc(S(=O)(=O)Nc2cccc3ncccc23)cc1C[C@H](N)C(=O)O` [Compound 50, (S)-2-Amino-3-(2-methyl-5-(N-(quinolin-5-yl)sulfamoyl)phenyl)propanoic Acid], 100 to 1000 nM.

`Cc1ccc(S(=O)(=O)Nc2ccc(Cl)cc2)cc1C[C@@H](N)C(=O)O` [Compound 51, (R)-2-Amino-3-(5-(N-(4-chlorophenyl)sulfamoyl)-2-methylphenyl)propanoic Acid]: the IC50 was no less than 10000 nM.

`Cc1ccc(CNS(=O)(=O)Cc2ccccc2)cc1C[C@H](N)C(=O)O` [Compound 54, (S)-2-Amino-3-(2-methyl-5-(((phenylmethyl)sulfonamido)methyl)phenyl)propanoic Acid]: the IC50 was 1000 to 10000 nM. Under `Cc1ccc(CSCc2ccccc2)cc1C[C@H](N)C(=O)O` [Compound 55, (S)-2-Amino-3-(5-((benzylthio)methyl)-2-methylphenyl)propanoic Acid] stands 100 to 1000 nM. For the molecule `Cc1ccc(CS(=O)(=O)Cc2ccccc2)cc1C[C@H](N)C(=O)O` [Compound 56, (S)-2-Amino-3-(5-((benzylsulfonyl)methyl)-2-methylphenyl)propanoic Acid], the IC50 is 100 to 1000 nM.

On to `COc1ccc(S(=O)(=O)Nc2ccc(C)c(C[C@H](N)C(=O)O)c2)cc1` [Compound 57, (S)-2-Amino-3-(5-((4-methoxyphenyl)sulfonamido)-2-methylphenyl)propanoic Acid], for which the IC50 lay within 100 to 1000 nM. Regarding `CCCCS(=O)(=O)Nc1ccc(C)c(C[C@H](N)C(=O)O)c1` [Compound 58, (S)-2-Amino-3-(5-(butylsulfonamido)-2-methylphenyl)propanoic Acid], the IC50 was 100 to 1000 nM. In the case of `Cc1ccc(SCc2ccccc2)cc1C[C@H](N)C(=O)O` [Compound 59, (S)-2-Amino-3-(5-(benzylthio)-2-methylphenyl)propanoic Acid] it was 100 to 1000 nM; in that of `Cc1ccc(C[S+]([O-])Cc2ccccc2)cc1C[C@H](N)C(=O)O` (stereo partly drawn) [Compound 60, (2S)-2-Amino-3-(5-((benzylsulfinyl)methyl)-2-methylphenyl)propanoic Acid], 100 to 1000 nM; in that of `CS(=O)(=O)Nc1cc(C[C@H](N)C(=O)O)cc(NS(C)(=O)=O)c1` [Compound 61, (S)-2-Amino-3-(3,5-di(methylsulfonamido)phenyl)propanoic Acid], no less than 10000 nM.

With `N[C@@H](Cc1cc(NS(=O)(=O)c2ccccc2)cc(NS(=O)(=O)c2ccccc2)c1)C(=O)O` [Compound 62, (S)-2-Amino-3-(3,5-bis(phenylsulfonamido)phenyl)propanoic Acid], the IC50 was no less than 10000 nM.

Regarding `Cc1ccc(S(=O)(=O)Nc2cc(C[C@H](N)C(=O)O)cc(NS(=O)(=O)c3ccc(C)cc3)c2)cc1` [Compound 63, (S)-2-Amino-3-(3,5-bis((4-methylphenyl)sulfonamido)phenyl)propanoic Acid], the IC50 is 1000 to 10000 nM. On to `Cc1ccc([S+]([O-])Cc2ccccc2)cc1C[C@H](N)C(=O)O` (stereo partly drawn) [Compound 64, (2S)-2-Amino-3-(5-(benzylsulfinyl)-2-methylphenyl)propanoic Acid], for which the IC50 lay within 1000 to 10000 nM. In the case of `Cc1ccc(S(=O)(=O)Cc2ccccc2)cc1C[C@H](N)C(=O)O` [Compound 65, (S)-2-Amino-3-(5-(benzylsulfonyl)-2-methylphenyl)propanoic Acid] it was 100 to 1000 nM. For `Cc1ccc(S(=O)(=O)NCc2ccc(C)c(C[C@H](N)C(=O)O)c2)cc1` [Compound 66, (S)-2-Amino-3-(2-methyl-5-(((4-methylphenyl)sulfonamido)methyl)phenyl)propanoic Acid], the IC50 is 100 to 1000 nM. As for `Cc1ccc(NS(C)(=O)=O)cc1C[C@H](N)C(=O)O` [Compound 67, (S)-2-Amino-3-(2-methyl-5-(methylsulfonamido)phenyl)propanoic Acid], the IC50 is no less than 10000 nM. In the case of `CS(=O)(=O)Nc1cccc(C[C@H](N)C(=O)O)c1` [Compound 68, (S)-2-Amino-3-(3-(methylsulfonamido)phenyl)propanoic Acid], the IC50 is no less than 10000 nM. Under `Cc1ccc(CNS(=O)(=O)c2ccccc2)cc1C[C@H](N)C(=O)O` [Compound 69, (S)-2-Amino-3-(2-methyl-5-(phenylsulfonamidomethyl)phenyl)propanoic Acid] stands 100 to 1000 nM; under `CS(=O)(=O)Nc1ccc(C[C@H](N)C(=O)O)cc1` [Compound 70, (S)-2-Amino-3-(4-(methylsulfonamido)phenyl)propanoic Acid], no less than 10000 nM; under `N[C@@H](Cc1cccc(S(N)(=O)=O)c1)C(=O)O` [Compound 71, (S)-2-Amino-3-(3-sulfamoylphenyl)propanoic Acid], no less than 10000 nM.

Turning to `CNS(=O)(=O)c1cccc(C[C@H](N)C(=O)O)c1` [Compound 72, (S)-2-Amino-3-(3-(N-methylsulfamoyl)phenyl)propanoic Acid], the IC50 was no less than 10000 nM.

Take `CN(C)S(=O)(=O)c1cccc(C[C@H](N)C(=O)O)c1` [Compound 73, (S)-2-Amino-3-(3-(N,N-dimethylsulfamoyl)phenyl)propanoic Acid]: the IC50 lay within 1000 to 10000 nM.

In the case of `N[C@@H](Cc1ccc(S(N)(=O)=O)cc1)C(=O)O` [Compound 74, (S)-2-Amino-3-(4-sulfamoylphenyl)propanoic acid], the IC50 is no less than 10000 nM. Regarding `Cc1ccc(S(=O)(=O)Nc2ccccc2Br)cc1C[C@H](N)C(=O)O` [Compound 75, (S)-2-Amino-3-(5-(N-(2-bromophenyl)sulfamoyl)-2-methylphenyl)propanoic Acid], the IC50 lay within 100 to 1000 nM. As to `N[C@@H](Cc1cccc(S(=O)(=O)N2CCCCC2)c1)C(=O)O` [Compound 78, (S)-2-Amino-3-(3-(piperidin-1-ylsulfonyl)phenyl)propanoic Acid], the IC50 fell in the range of 1000 to 10000 nM. Under `N[C@@H](Cc1ccc(S(=O)(=O)Nc2ccc(Cl)cc2)cc1)C(=O)O` [Compound 80, (S)-2-Amino-3-(4-(N-(4-chlorophenyl)sulfamoyl)phenyl)propanoic Acid] stands 1000 to 10000 nM. Under `N[C@@H](Cc1ccccc1S(=O)(=O)Nc1ccc(Cl)cc1)C(=O)O` [Compound 81, (S)-2-Amino-3-(2-(N-(4-chlorophenyl)sulfamoyl)phenyl)propanoic Acid] stands 1000 to 10000 nM; under `Cc1ccc(S(=O)(=O)Nc2ccc(Cl)c(Cl)c2)cc1C[C@H](N)C(=O)O` [Compound 83, (S)-2-Amino-3-(5-(N-(3,4-dichlorophenyl)sulfamoyl)-2-methylphenyl)propanoic Acid], 100 to 1000 nM.
